From paper PMC8550792, “Evolution of kinase polypharmacology across HSP90 drug discovery” (Cell Chemical Biology, 2021)

How the values were obtained:
Assay in all cases: biochemical
Assay type in all cases: biochemical
382 unique human kinases [1] = target: T1, 382 unique human kinases (Homo sapiens, UniProt Q9HBH9); conditions: kinase MNK2, compound 10 uM; for remaining activity at 10 µM: read-out: % Enzyme Activity (relative to DMSO controls)
T1 construct: purchased Reaction Biology (HotSpot contract assay)
T1 sequence (Q9HBH9 whole entry): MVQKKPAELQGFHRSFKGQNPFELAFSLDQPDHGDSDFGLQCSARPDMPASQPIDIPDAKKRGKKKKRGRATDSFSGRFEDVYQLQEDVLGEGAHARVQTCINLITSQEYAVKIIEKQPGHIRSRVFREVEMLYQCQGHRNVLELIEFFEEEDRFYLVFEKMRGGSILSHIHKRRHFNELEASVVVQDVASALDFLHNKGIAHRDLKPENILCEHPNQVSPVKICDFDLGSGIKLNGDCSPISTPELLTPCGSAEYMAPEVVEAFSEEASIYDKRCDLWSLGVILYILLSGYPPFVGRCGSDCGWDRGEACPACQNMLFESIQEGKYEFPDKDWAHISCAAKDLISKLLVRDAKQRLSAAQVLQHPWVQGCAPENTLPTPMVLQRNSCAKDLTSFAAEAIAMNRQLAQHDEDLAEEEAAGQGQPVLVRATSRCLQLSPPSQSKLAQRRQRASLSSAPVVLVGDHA

382 unique human kinases [2] = target: T2, 382 unique human kinases (Homo sapiens, UniProt P08922); conditions: ROS/ROS1, 10 uM; for remaining activity at 10 µM: read-out: % Enzyme Activity (relative to DMSO controls)
T2 construct: purchased Reaction Biology (HotSpot contract assay)

382 unique human kinases [3] = target: T3, 382 unique human kinases (Homo sapiens, UniProt Q9Y2U5); conditions: MEKK2, compound at 10 uM, duplicate values; for remaining activity at 10 µM: read-out: % Enzyme Activity (relative to DMSO controls)
T3 construct: purchased Reaction Biology (HotSpot contract assay)
T3 sequence (Q9Y2U5 1-619): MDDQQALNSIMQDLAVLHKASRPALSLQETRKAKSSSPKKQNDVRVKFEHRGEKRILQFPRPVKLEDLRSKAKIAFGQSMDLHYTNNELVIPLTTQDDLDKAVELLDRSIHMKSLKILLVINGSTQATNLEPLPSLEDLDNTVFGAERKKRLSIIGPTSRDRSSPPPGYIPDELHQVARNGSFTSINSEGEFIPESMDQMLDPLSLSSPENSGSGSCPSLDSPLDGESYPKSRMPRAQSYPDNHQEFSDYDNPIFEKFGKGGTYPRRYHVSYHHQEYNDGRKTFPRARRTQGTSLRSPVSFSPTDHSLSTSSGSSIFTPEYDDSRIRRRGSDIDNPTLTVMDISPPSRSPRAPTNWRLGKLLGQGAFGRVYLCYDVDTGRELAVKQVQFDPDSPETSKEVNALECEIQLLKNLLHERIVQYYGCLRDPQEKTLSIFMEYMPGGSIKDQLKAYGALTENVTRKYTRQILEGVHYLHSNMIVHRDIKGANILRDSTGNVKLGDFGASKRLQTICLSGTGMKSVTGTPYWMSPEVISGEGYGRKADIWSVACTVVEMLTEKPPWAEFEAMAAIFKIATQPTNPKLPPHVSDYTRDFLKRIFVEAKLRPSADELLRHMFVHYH

382 unique human kinases [4] = target: T4, 382 unique human kinases (Homo sapiens, UniProt P16591); conditions: kinase FER, compound 10 uM; for remaining activity at 10 µM: read-out: % Enzyme Activity (relative to DMSO controls)
T4 construct: purchased Reaction Biology (HotSpot contract assay)
T4 sequence (P16591 whole entry): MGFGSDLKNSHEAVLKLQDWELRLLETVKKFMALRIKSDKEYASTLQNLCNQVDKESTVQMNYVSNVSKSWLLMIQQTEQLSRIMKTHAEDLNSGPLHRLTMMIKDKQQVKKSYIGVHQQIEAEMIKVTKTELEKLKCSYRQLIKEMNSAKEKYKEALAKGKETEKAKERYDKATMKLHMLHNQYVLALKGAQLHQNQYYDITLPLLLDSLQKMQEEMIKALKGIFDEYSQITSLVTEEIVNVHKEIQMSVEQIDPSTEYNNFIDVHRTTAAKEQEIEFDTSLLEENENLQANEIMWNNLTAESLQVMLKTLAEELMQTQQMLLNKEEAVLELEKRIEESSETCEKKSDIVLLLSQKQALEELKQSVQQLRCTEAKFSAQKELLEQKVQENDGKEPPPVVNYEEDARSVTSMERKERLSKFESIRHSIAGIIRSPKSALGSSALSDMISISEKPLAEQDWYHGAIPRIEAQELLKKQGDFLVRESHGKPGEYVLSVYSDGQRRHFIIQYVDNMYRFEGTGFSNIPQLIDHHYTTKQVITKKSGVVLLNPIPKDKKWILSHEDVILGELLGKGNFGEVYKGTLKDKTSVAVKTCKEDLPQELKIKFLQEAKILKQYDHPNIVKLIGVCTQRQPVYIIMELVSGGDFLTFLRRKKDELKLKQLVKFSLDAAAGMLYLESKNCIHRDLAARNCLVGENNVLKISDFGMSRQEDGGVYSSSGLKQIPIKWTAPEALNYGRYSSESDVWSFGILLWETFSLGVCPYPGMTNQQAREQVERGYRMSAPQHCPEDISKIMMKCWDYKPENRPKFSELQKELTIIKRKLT

382 unique human kinases [5] = target: T5, 382 unique human kinases (Homo sapiens, UniProt O75582); conditions: kinase MSK1/RPS6KA5, compound 10 uM; for remaining activity at 10 µM: read-out: % Enzyme Activity (relative to DMSO controls)
T5 construct: purchased Reaction Biology (HotSpot contract assay)
T5 sequence (O75582 whole entry): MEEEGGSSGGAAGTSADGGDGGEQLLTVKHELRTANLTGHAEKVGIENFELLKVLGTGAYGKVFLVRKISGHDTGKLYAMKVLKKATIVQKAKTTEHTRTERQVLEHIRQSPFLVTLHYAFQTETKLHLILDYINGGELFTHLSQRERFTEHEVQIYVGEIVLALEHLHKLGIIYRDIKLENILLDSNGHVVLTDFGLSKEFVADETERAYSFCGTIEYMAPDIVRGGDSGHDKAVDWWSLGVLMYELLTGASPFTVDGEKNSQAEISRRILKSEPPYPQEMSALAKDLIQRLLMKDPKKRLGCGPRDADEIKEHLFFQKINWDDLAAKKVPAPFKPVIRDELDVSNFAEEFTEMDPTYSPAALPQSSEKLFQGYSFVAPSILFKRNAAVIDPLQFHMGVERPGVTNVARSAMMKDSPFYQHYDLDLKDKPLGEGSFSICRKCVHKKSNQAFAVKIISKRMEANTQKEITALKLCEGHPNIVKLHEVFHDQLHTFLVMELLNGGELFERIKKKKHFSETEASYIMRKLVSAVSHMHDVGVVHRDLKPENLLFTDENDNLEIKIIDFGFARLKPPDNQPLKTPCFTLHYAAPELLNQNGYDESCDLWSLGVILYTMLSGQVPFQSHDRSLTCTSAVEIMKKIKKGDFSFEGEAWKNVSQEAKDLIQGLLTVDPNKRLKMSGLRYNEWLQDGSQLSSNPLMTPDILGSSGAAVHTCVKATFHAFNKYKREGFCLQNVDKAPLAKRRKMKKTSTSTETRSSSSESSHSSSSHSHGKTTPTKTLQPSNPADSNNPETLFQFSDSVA

382 unique human kinases [6] = target: T6, 382 unique human kinases (Homo sapiens, UniProt O14920); conditions: IKKb/IKBKB, 10 uM; for remaining activity at 10 µM: read-out: % Enzyme Activity (relative to DMSO controls)
T6 construct: purchased Reaction Biology (HotSpot contract assay)
T6 sequence (O14920 1-756): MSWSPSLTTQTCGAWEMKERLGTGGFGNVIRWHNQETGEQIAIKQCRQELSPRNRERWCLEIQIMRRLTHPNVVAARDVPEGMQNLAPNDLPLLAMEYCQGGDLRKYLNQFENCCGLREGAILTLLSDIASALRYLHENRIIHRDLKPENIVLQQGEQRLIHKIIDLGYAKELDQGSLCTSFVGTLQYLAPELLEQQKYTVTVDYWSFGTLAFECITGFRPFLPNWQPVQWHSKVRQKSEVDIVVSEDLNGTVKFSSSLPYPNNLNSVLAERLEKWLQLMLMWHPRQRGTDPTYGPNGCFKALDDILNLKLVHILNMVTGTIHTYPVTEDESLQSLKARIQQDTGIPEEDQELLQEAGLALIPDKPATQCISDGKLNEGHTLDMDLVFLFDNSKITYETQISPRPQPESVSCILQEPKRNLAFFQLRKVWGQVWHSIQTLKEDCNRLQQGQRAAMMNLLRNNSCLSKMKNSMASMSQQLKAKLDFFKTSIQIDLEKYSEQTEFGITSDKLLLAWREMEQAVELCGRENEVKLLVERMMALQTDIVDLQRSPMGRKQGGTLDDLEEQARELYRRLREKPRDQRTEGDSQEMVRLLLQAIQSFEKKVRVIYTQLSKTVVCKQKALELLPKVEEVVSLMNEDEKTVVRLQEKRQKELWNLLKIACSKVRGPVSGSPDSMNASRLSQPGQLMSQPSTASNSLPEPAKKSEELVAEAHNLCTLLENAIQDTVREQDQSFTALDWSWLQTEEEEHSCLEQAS

382 unique human kinases [7] = target: T7, 382 unique human kinases (Homo sapiens, UniProt Q00536); conditions: CDK16/cyclin Y (PCTAIRE), 10 uM; for remaining activity at 10 µM: read-out: % Enzyme Activity (relative to DMSO controls)
T7 construct: purchased Reaction Biology (HotSpot contract assay)
T7 sequence (Q00536 whole entry): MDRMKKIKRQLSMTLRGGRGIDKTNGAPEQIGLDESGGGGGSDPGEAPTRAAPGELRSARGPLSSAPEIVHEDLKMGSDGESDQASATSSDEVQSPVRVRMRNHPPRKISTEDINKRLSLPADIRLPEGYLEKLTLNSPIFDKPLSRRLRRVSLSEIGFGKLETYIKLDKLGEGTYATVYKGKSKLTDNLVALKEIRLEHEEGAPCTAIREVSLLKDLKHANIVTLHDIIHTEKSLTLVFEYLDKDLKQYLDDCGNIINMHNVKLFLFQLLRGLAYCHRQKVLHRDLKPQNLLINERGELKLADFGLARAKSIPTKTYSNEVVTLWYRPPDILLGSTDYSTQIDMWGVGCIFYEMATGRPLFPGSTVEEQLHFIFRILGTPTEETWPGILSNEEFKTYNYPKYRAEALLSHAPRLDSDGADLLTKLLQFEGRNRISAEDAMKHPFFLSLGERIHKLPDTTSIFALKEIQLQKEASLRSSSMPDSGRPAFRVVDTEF

382 unique human kinases [8] = target: T8, 382 unique human kinases (Homo sapiens, UniProt P53667); conditions: LIMK1, 10 uM; for remaining activity at 10 µM: read-out: % Enzyme Activity (relative to DMSO controls)
T8 construct: purchased Reaction Biology (HotSpot contract assay)
T8 sequence (P53667 whole entry): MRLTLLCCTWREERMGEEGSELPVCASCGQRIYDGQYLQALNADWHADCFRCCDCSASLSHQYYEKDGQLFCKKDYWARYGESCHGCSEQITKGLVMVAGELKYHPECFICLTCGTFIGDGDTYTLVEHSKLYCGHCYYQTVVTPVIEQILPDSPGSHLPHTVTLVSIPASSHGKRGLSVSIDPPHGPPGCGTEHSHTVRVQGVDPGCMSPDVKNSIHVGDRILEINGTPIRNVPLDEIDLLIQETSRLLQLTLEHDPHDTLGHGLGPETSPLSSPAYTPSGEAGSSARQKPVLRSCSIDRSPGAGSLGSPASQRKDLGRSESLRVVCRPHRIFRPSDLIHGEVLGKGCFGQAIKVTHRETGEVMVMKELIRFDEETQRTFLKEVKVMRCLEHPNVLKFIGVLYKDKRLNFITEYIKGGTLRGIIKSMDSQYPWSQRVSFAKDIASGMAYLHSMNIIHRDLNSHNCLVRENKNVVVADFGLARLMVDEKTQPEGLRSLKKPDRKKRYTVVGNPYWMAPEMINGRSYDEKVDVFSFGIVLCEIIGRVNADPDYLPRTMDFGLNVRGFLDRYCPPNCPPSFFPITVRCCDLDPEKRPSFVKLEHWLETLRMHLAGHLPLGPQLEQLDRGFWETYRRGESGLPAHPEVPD

382 unique human kinases [9] = target: T9, 382 unique human kinases (Homo sapiens, UniProt Q86V86); conditions: PIM3, [ATP] 20 µM
T9 construct: purchased Reaction Biology (HotSpot contract assay)

382 unique human kinases [10] = target: T10, 382 unique human kinases (Homo sapiens, UniProt Q32MK0); conditions: MYLK3, 10 uM; for remaining activity at 10 µM: read-out: % Enzyme Activity (relative to DMSO controls)
T10 construct: purchased Reaction Biology (HotSpot contract assay)
T10 sequence (Q32MK0 1-819): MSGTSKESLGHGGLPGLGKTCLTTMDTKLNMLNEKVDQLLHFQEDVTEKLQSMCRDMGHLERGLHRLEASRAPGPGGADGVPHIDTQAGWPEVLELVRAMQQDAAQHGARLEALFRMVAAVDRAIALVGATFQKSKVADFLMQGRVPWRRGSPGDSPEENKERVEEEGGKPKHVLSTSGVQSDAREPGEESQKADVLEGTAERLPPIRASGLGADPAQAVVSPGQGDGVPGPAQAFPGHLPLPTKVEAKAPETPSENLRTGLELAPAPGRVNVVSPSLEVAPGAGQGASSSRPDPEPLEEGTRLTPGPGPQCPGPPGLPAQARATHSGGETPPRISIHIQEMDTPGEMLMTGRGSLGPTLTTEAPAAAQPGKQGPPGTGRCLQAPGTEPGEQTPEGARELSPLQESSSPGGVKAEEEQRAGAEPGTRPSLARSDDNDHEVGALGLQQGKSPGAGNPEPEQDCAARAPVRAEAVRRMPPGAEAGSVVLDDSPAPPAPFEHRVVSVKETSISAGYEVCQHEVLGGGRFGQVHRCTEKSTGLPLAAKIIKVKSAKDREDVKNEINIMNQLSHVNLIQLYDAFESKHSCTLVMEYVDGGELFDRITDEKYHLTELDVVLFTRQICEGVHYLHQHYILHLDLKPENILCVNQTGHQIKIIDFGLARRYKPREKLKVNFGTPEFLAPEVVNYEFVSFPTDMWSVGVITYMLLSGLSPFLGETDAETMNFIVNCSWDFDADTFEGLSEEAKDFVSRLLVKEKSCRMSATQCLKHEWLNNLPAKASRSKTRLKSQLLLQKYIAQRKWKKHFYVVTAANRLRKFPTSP

382 unique human kinases [11] = target: T11, 382 unique human kinases (Homo sapiens, UniProt P07949, G691S); conditions: RET (G691S), 10 uM; for remaining activity at 10 µM: read-out: % Enzyme Activity (relative to DMSO controls)
T11 construct: purchased Reaction Biology (HotSpot contract assay)
T11 sequence (P07949 29-1114 G691S): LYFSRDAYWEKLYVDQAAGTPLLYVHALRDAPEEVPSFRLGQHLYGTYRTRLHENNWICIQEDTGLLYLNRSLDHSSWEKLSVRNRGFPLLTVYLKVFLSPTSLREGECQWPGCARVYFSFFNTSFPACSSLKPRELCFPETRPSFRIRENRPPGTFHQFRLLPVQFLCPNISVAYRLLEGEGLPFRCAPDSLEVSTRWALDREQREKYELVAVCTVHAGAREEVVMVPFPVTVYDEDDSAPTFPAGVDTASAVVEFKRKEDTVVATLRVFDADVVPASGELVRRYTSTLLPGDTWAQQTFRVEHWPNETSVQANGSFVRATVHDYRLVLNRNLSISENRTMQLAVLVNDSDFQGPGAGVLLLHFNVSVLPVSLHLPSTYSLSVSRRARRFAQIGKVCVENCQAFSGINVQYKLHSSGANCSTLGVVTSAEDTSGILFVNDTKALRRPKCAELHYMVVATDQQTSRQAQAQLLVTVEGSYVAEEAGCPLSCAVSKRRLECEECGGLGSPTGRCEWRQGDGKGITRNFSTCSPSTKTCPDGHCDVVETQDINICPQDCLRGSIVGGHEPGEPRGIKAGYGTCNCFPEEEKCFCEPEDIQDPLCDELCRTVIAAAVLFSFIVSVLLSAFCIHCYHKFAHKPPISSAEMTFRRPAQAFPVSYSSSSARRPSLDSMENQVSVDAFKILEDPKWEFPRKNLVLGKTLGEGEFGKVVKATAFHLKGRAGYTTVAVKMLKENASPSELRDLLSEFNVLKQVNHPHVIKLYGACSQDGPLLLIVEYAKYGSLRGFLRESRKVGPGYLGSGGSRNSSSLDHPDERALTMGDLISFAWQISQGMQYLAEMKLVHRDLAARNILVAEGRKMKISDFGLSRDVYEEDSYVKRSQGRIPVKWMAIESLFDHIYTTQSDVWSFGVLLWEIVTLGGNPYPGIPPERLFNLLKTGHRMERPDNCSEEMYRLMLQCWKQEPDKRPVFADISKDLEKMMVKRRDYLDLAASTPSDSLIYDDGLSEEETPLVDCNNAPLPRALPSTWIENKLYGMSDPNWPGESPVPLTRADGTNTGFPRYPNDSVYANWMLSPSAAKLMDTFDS

[12] = compound 10 uM, read-out: % Enzyme Activity (relative to DMSO controls)

`CC(C)c1cc(-c2n[nH]c(=O)n2-c2ccc3c(ccn3C)c2)c(O)cc1O` [Ganetespib (STA9090)] showed a remaining activity at 10 µM (382 unique human kinases [1]) of 92%, a remaining activity at 10 µM (382 unique human kinases [2]) of 70.2% and a remaining activity at 10 µM (382 unique human kinases [3]) of 109%. It also gave a remaining activity at 10 µM (382 unique human kinases [4]) of 82.6%, a remaining activity at 10 µM (382 unique human kinases [5]) of 81% and a remaining activity at 10 µM (382 unique human kinases [6]) of 66.7%. For the same compound, the remaining activity at 10 µM (382 unique human kinases [7]) was 78% and the remaining activity at 10 µM (382 unique human kinases [8]) was 67.6%.

For `CC(C)c1cc(-c2n[nH]c(=O)n2-c2ccc3c(ccn3C)c2)c(O)cc1O` [Ganetespib], the remaining activity at 1 µM (382 unique human kinases [9]; compound 1 uM, read-out: % Enzyme Activity (relative to DMSO controls)) was 61.1%, the remaining activity at 10 µM (382 unique human kinases [9]; [12]) was 14.3% and the remaining activity at 10 µM (382 unique human kinases [10]) was 100%. For the same compound, the remaining activity at 10 µM (382 unique human kinases [11]) was 98.6%.

In the case of `CCNC(=O)c1noc(-c2cc(C(C)C)c(O)cc2O)c1-c1ccc(CN2CCOCC2)cc1` [Luminespib (AUY-922)], the “% Enzyme Activity (relative to DMSO controls)” value (382 unique human kinases [1]) was 103.84%, the remaining activity at 10 µM (382 unique human kinases [1]) was 105% and the “% Enzyme Activity (relative to DMSO controls)” value (382 unique human kinases [2]) was 89.10%. The remaining activity at 10 µM (382 unique human kinases [2]) was 90.8%, the “% Enzyme Activity (relative to DMSO controls)” value (382 unique human kinases [3]) was 118.79% and the remaining activity at 10 µM (382 unique human kinases [3]) was 123%. The “% Enzyme Activity (relative to DMSO controls)” value (382 unique human kinases [4]) was 101.55%, the remaining activity at 10 µM (382 unique human kinases [4]) was 102% and the “% Enzyme Activity (relative to DMSO controls)” value (382 unique human kinases [5]) was 109.40%. For the same compound, the remaining activity at 10 µM (382 unique human kinases [5]) was 111%, the “% Enzyme Activity (relative to DMSO controls)” value (382 unique human kinases [6]) was 102.97% and the remaining activity at 10 µM (382 unique human kinases [6]) was 104%. For the same compound, the “% Enzyme Activity (relative to DMSO controls)” value (382 unique human kinases [7]) was 100.35%, the remaining activity at 10 µM (382 unique human kinases [7]) was 100% and the “% Enzyme Activity (relative to DMSO controls)” value (382 unique human kinases [8]) was 101.40%. It also gave a remaining activity at 10 µM (382 unique human kinases [8]) of 102%.

In the case of `CCNC(=O)c1noc(-c2cc(C(C)C)c(O)cc2O)c1-c1ccc(CN2CCOCC2)cc1` [Luminespib], the “% Enzyme Activity (relative to DMSO controls)” value (382 unique human kinases [9]; compound 10 uM) was 94.11%, the remaining activity at 10 µM (382 unique human kinases [9]; [12]) was 97.5% and the “% Enzyme Activity (relative to DMSO controls)” value (382 unique human kinases [10]) was 99.89%. For the same compound, the remaining activity at 10 µM (382 unique human kinases [10]) was 100%, the “% Enzyme Activity (relative to DMSO controls)” value (382 unique human kinases [11]) was 100.12% and the remaining activity at 10 µM (382 unique human kinases [11]) was 101%.
